Measured values from PubChem BioAssay AID330 (DTP/NCI, 2004).
Values joined by “and” are separate entries in the source; they are usually repeats but may differ in a detail not shown here. Equal entries are not always repeated. Toxic doses and inconclusive results are not listed. Rule for the calls: active = survival T/C of 150% or more; inactive = T/C below 125% in these data.

Test system: P388 leukemia ip, CD2F1 mice, survival T/C
Assay: NCI In Vivo Anticancer Drug Screen. Data for tumor model P388 Leukemia (intraperitoneal) in CD2F1 (CDF1) mice
Conditions: endpoint: median survival time, higher = longer survival
Summary of the method: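 Mice carrying the transplanted tumor received test compound or vehicle. Survival was recorded in each group, and the value is the treated-group measurement divided by that of the vehicle-treated control group.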

[1] = dose: 60.0 mg/kg/injection, schedule: Q01DX005 (ip), vehicle: saline with Tween-80
[2] = dose: 120.0 mg/kg/injection, schedule: Q01DX005 (ip), vehicle: saline with Tween-80
[3] = dose: 240.0 mg/kg/injection, schedule: Q01DX005 (ip), vehicle: saline with Tween-80
[4] = dose: 25.0 mg/kg/injection, schedule: Q01DX009 (ip), vehicle: saline
[5] = dose: 100.0 mg/kg/injection, schedule: Q01DX009 (ip), vehicle: saline with Tween-80
[6] = dose: 25.0 mg/kg/injection, schedule: Q01DX009 (ip), vehicle: saline with Tween-80
[7] = dose: 50.0 mg/kg/injection, schedule: Q01DX009 (ip), vehicle: saline with Tween-80
[8] = dose: 200.0 mg/kg/injection, schedule: Q01DX009 (ip), vehicle: saline with Tween-80
[9] = dose: 50.0 mg/kg/injection, schedule: Q01DX009 (ip), vehicle: Klucel (hydroxypropylcellulose) (HPC)
[10] = dose: 100.0 mg/kg/injection, schedule: Q01DX009 (ip), vehicle: Klucel (hydroxypropylcellulose) (HPC)
[11] = dose: 200.0 mg/kg/injection, schedule: Q01DX009 (ip), vehicle: Klucel (hydroxypropylcellulose) (HPC)
[12] = dose: 12.5 mg/kg/injection, schedule: Q01DX005 (ip), vehicle: saline with Tween-80
[13] = dose: 25.0 mg/kg/injection, schedule: Q01DX005 (ip), vehicle: saline with Tween-80
[14] = dose: 50.0 mg/kg/injection, schedule: Q01DX005 (ip), vehicle: saline with Tween-80

Measured: T/C

COc1ccc(C(=O)C(CN2CCCC2)CN2CCCC2)cc1
inactive: dose: 7.5 mg/kg/injection, schedule: Q01DX005 (ip), vehicle: saline 111 % of control | dose: 7.5 mg/kg/injection, schedule: Q01DX009 (ip), vehicle: saline 112 % of control | dose: 15.0 mg/kg/injection, schedule: Q01DX004 (ip), vehicle: saline 122 % of control | dose: 15.0 mg/kg/injection, schedule: Q01DX005 (ip), vehicle: saline 121 % of control | dose: 15.0 mg/kg/injection, schedule: Q01DX009 (ip), vehicle: saline 123 % of control | dose: 30.0 mg/kg/injection, schedule: Q01DX004 (ip), vehicle: saline 115 % of control | dose: 60.0 mg/kg/injection, schedule: Q01DX004 (ip), vehicle: saline 108 % of control

CN1c2ccc(C3N(C(=O)C(F)(F)F)C=CN3C(=O)C(F)(F)F)cc2Sc2cc(C3N(C(=O)C(F)(F)F)C=CN3C(=O)C(F)(F)F)ccc21
inactive: [1] 91 % of control | [2] 89 % of control | [3] 91 % of control

C[Si](C)(C)N1CCOC1=O
inactive: [1] 109 % of control | [2] 103 % of control | [3] 108 % of control

CCCCCCCCCCCCCCCCOc1ccc(S(=O)(=O)N/N=c2/sc3ccc(S(=O)(=O)O)cc3n2C)cc1C(=O)O
inactive: [4] 99 % of control | dose: 50.0 mg/kg/injection, schedule: Q01DX009 (ip), vehicle: saline 100 % of control | [5] 102 % of control | dose: 100.0 mg/kg/injection, schedule: Q01DX009 (ip), vehicle: saline 86 % of control

COc1ccccc1N1C(=S)N(c2cccc(Cl)c2Cl)C(=O)C(N=Nc2cccc(Cl)c2Cl)C1O (stereo unspecified)
inactive: dose: 100.0 mg/kg/injection, schedule: Q04DX003 (ip), vehicle: Klucel (hydroxypropylcellulose) (HPC) 104 % of control | dose: 200.0 mg/kg/injection, schedule: Q04DX003 (ip), vehicle: Klucel (hydroxypropylcellulose) (HPC) 104 % of control | dose: 400.0 mg/kg/injection, schedule: Q04DX003 (ip), vehicle: Klucel (hydroxypropylcellulose) (HPC) 98 % of control

C=C(C)C(=NC(C)(C)C)Nc1ccccc1Cl
inactive: [6] 101 % of control and 90 % of control | [7] 100 % of control and 119 % of control and 93 % of control | [5] 111 % of control and 115 % of control and 90 % of control | [8] 115 % of control and 98 % of control

CCOC(=O)c1cc(Cl)cc2c(=O)c3c([nH]c12)C(=O)c1c([nH]c2c(C(=O)OCC)cc(Cl)cc2c1=O)C3=O
inactive: [9] 99 % of control | [10] 105 % of control | [11] 98 % of control

OC(CC(O)(C(F)(F)F)C(F)(F)F)CC(O)(C(F)(F)F)C(F)(F)F
inactive: dose: 6.25 mg/kg/injection, schedule: Q04DX003 (ip), vehicle: saline with Tween-80 109 % of control | dose: 12.5 mg/kg/injection, schedule: Q04DX003 (ip), vehicle: saline with Tween-80 109 % of control | dose: 25.0 mg/kg/injection, schedule: Q04DX003 (ip), vehicle: saline with Tween-80 95 % of control

N#CC(NCc1ccccc1)C(O)c1ccccc1 (stereo unspecified)
inactive: dose: 25.0 mg/kg/injection, schedule: Q01DX009 (ip), vehicle: suspension in saline 105 % of control | dose: 50.0 mg/kg/injection, schedule: Q01DX009 (ip), vehicle: suspension in saline 105 % of control | dose: 100.0 mg/kg/injection, schedule: Q01DX009 (ip), vehicle: suspension in saline 105 % of control

O=C(O)CC(O)C(F)(F)C(F)(F)C(F)(F)F (stereo unspecified)
inactive: dose: 18.75 mg/kg/injection, schedule: Q04DX003 (ip), vehicle: saline 100 % of control | dose: 37.5 mg/kg/injection, schedule: Q04DX003 (ip), vehicle: saline 95 % of control | dose: 75.0 mg/kg/injection, schedule: Q04DX003 (ip), vehicle: saline 109 % of control

CC1CCC2CCCCN2CO1 (stereo unspecified)
inactive: dose: 25.0 mg/kg/injection, schedule: Q01DX005 (ip), vehicle: Klucel (hydroxypropylcellulose) (HPC) 105 % of control | dose: 50.0 mg/kg/injection, schedule: Q01DX005 (ip), vehicle: Klucel (hydroxypropylcellulose) (HPC) 101 % of control and 122 % of control and 96 % of control | dose: 100.0 mg/kg/injection, schedule: Q01DX005 (ip), vehicle: Klucel (hydroxypropylcellulose) (HPC) 101 % of control and 109 % of control and 112 % of control | dose: 200.0 mg/kg/injection, schedule: Q01DX005 (ip), vehicle: Klucel (hydroxypropylcellulose) (HPC) 104 % of control and 114 % of control and 118 % of control

Cn1c(=O)[nH]c(=O)c2nc(-c3ccc(Cl)cc3)cnc21
inactive: dose: 100.0 mg/kg/injection, schedule: Q04DX002 (ip), vehicle: saline with Tween-80 94 % of control | dose: 200.0 mg/kg/injection, schedule: Q04DX002 (ip), vehicle: saline with Tween-80 97 % of control | dose: 400.0 mg/kg/injection, schedule: Q04DX002 (ip), vehicle: saline with Tween-80 97 % of control

CC1=Nc2cc3ccccc3cc2N(C)/C1=C/C1=C(Cl)C(=O)c2ccccc2C1=O
inactive: dose: 12.5 mg/kg/injection, schedule: Q01DX009 (ip), vehicle: saline with Tween-80 96 % of control | [6] 100 % of control | [7] 92 % of control and 97 % of control | [5] 106 % of control | [8] 89 % of control

CC(C)(C)c1cc(I)c(O)c(CN)c1
inactive: [4] 123 % of control

CSC(=Nc1cccc(C)c1)NC#N
inactive: [9] 103 % of control | [10] 106 % of control | [11] 105 % of control

COc1cccc2c1C(=O)c1c(O)c3c(c(O)c1C2=O)CC(O)(/C(C)=N/NC(=S)c1ccccc1)CC3OC1CC(N)C(O)C(C)O1 (stereo unspecified)
active: dose: 6.25 mg/kg/injection, schedule: Q04DX003 (ip), vehicle: saline 154 % of control | dose: 12.5 mg/kg/injection, schedule: Q04DX003 (ip), vehicle: saline 159 % of control | dose: 25.0 mg/kg/injection, schedule: Q04DX003 (ip), vehicle: saline 166 % of control
inactive: dose: 3.13 mg/kg/injection, schedule: Q01DX009 (ip), vehicle: other 88 % of control | dose: 6.25 mg/kg/injection, schedule: Q01DX009 (ip), vehicle: other 96 % of control | dose: 12.5 mg/kg/injection, schedule: Q01DX009 (ip), vehicle: other 103 % of control | dose: 25.0 mg/kg/injection, schedule: Q01DX009 (ip), vehicle: other 88 % of control

CCCCCCCCC(=O)c1c(OC)oc(/C=N/O)cc1=O
inactive: dose: 12.5 mg/kg/injection, schedule: Q01DX009 (ip), vehicle: Klucel (hydroxypropylcellulose) (HPC) 87 % of control

CCOC(=O)C(=CNc1cccc2c(O)cccc12)C(=O)OCC
inactive: [12] 90 % of control | [13] 93 % of control | [14] 97 % of control | dose: 200.0 mg/kg/injection, schedule: Q01DX005 (ip), vehicle: saline with Tween-80 95 % of control

CC(=O)OC1=C(C)[C@@H]2CC(=O)O[C@@H]3C[C@H]4[C@H](C)C[C@H](O)[C@H](O)[C@]4(C)[C@@H](C1=O)[C@@]32C
inactive: dose: 0.5 mg/kg/injection, schedule: Q01DX005 (ip), vehicle: saline + alcohol 101 % of control | dose: 1.0 mg/kg/injection, schedule: Q01DX005 (ip), vehicle: saline + alcohol 103 % of control | dose: 2.0 mg/kg/injection, schedule: Q01DX005 (ip), vehicle: saline + alcohol 115 % of control | dose: 4.0 mg/kg/injection, schedule: Q01DX005 (ip), vehicle: saline + alcohol 111 % of control | dose: 8.0 mg/kg/injection, schedule: Q01DX005 (ip), vehicle: saline + alcohol 115 % of control | dose: 16.0 mg/kg/injection, schedule: Q01DX005 (ip), vehicle: saline + alcohol 101 % of control | dose: 32.0 mg/kg/injection, schedule: Q01DX005 (ip), vehicle: saline + alcohol 94 % of control

CC(=O)c1ccc2c(c1)[nH]c1ccccc12
inactive: [5] 86 % of control | [8] 90 % of control | dose: 400.0 mg/kg/injection, schedule: Q01DX009 (ip), vehicle: saline with Tween-80 90 % of control

O=[As]O
inactive: dose: 0.5 mg/kg/injection, schedule: Q01DX010 (ip), vehicle: saline with Tween-80 100 % of control | dose: 1.0 mg/kg/injection, schedule: Q01DX010 (ip), vehicle: saline with Tween-80 109 % of control | dose: 2.0 mg/kg/injection, schedule: Q01DX010 (ip), vehicle: saline with Tween-80 109 % of control

O=[N+]([O-])C(c1ccccc1)C(c1ccccc1)[N+](=O)[O-] (stereo unspecified)
inactive: [12] 98 % of control | [13] 101 % of control | [14] 109 % of control and 112 % of control and 119 % of control | dose: 100.0 mg/kg/injection, schedule: Q01DX005 (ip), vehicle: saline with Tween-80 109 % of control and 110 % of control
